This is an account of results in paper PMC11674187, “Inhibitory Effects of Cenobamate on Multiple Human Cardiac Ion Channels and Possible Arrhythmogenic Consequences” (Biomolecules, 2024).

As a reminder, the inhibition is the drop in the measured response relative to a control, in per cent. As usually defined, the IC50 is the concentration that inhibits the measured activity by half.

Molecules are shown by their SMILES. “And” between values parts separate entries of the source, which are not always exact repeats. Identical values can stand only once. Like-named read-outs stand apart in the source and are kept apart here.

For one data set, the target named is T1, hNav1.5 (Homo sapiens, UniProt Q14524).
T1 construct: host or cells: HEK293T
T1 sequence (Q14524 whole entry): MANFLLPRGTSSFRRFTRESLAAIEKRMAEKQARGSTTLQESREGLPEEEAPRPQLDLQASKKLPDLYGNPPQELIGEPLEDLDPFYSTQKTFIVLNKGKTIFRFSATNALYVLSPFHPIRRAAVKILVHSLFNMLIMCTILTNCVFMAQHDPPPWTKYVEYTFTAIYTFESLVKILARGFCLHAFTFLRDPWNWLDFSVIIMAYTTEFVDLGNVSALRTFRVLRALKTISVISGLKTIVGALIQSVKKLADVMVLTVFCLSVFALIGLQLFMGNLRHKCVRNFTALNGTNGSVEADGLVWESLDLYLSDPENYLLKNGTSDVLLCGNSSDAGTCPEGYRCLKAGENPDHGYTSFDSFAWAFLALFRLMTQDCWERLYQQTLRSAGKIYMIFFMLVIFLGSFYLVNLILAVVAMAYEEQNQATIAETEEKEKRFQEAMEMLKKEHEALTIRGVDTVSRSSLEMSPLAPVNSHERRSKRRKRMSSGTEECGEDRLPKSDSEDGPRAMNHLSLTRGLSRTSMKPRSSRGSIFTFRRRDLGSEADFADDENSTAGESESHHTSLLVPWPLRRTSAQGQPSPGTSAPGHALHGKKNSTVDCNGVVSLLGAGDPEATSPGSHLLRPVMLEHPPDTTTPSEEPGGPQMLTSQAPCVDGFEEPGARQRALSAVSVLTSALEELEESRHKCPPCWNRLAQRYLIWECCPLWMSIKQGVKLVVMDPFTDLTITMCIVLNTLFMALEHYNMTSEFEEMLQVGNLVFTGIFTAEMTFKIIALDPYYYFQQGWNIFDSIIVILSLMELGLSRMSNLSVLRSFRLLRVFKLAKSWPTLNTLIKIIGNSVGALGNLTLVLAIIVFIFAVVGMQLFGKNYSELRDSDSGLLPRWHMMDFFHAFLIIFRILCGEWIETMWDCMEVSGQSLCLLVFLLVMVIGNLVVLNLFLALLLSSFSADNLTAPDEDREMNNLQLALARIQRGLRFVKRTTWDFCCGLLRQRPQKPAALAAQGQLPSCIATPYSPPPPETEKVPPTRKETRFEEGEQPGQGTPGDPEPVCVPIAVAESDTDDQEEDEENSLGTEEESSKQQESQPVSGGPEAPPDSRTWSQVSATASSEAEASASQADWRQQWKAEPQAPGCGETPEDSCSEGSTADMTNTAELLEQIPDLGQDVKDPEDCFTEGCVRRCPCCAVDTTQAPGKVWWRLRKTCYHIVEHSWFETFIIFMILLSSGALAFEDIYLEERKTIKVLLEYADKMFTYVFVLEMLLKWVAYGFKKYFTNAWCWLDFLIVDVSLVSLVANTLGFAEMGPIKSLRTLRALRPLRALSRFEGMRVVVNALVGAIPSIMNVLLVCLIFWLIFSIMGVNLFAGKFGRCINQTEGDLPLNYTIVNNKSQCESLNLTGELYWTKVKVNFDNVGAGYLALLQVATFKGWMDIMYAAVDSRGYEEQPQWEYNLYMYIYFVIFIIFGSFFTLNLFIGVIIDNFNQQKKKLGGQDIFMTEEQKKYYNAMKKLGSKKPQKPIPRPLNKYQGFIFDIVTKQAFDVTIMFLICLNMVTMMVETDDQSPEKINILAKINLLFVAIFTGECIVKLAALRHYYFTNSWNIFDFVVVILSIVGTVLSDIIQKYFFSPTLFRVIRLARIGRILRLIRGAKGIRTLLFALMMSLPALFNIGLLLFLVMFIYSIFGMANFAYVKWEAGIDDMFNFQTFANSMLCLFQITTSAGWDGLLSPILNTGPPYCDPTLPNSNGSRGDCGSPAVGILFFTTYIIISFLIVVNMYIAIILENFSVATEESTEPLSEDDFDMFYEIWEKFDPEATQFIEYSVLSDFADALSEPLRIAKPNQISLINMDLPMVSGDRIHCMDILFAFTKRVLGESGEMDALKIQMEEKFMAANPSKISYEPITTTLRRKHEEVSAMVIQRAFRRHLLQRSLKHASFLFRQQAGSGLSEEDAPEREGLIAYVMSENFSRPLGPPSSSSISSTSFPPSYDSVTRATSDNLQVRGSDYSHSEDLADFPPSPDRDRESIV
The data set is described as follows: Whole-cell patch-clamp on HEK293T cells, late INa (CiPA-like protocol with ATX-II). In kind it is cell-based. As for the experimental part: Experiments were performed on HEK293T cell lines with persistent/inducible expression of different human cardiac ion channel isoforms: hNav1.5 and hKv7.1 + minK (Anaxon AG, Bern, Switzerland), hCav1.2 (α1c + β2 + α2δ1) (B’SYS GmbH, Witterswil, Switzerland), and hKv11.1 (hERG) (Cytocentrics Bioscience GmbH, Rostock, Germany). The cell lines were grown in standard conditions (37 °C, 5% CO2, 90% humidity) in DMEM:F12 medium (D8900, Sigma-Aldrich, Burlington, MA, USA) buffered with 15 mM HEPES, containing 3.15 g/L D-glucose and 0.055 g/L sodium pyruvate, supplemented with 1.2 g/L sodium bicarbonate, 10% fetal bovine serum (F2442, Sigma-Aldrich, Burlington, MA, USA), 2 mM L-glutamine (G7513, Sigma-Aldrich, Burlington, MA, USA), 1% penicillin–streptomycin (P4333, Sigma-Aldrich, Burlington, MA, USA), and with specific antibiotics for selection of transfected cells or induction of gene expression according to manufacturers’ instructions. The medium was changed every 2–3 days and the cells were passed weekly upon detachment with trypsin–EDTA solution. All cell culture media and solutions were sterile filtered with 0.22 μm polyvinylidene fluoride filters. Ncyte® vCardiomyocytes (Ncardia, Leiden, The Netherlands) were cultured in 24-well plates precoated with bovine fibronectin, following manufacturer’s instructions. For the experiments, cardiomyocytes were detached as described previously and plated on ϕ 10 mm glass coverslips, like the other cell lines.
Manual whole-cell patch-clamp experiments were performed at room temperature, with equipment as described in previous studies. Pipettes were pulled from Clark borosilicate glass capillaries with inner filament (GC150F-10, Harvard Apparatus, Holliston, MA, USA) and had typical resistances of 2–3 MΩ. Recordings were performed with a WPC-100 resistive feedback amplifier (ESF electronic, Göttingen, Germany) or an Axopatch 200B amplifier (Axon Instruments—Molecular Devices, San Jose, CA, USA) connected to a Digidata 1322A interface driven by the pClamp 8.2 Clampex module (Axon Instruments, part of Molecular Devices, San Jose, CA, USA). For different types of ion channel, we applied specific voltage-clamp protocols as follows: • - For hERG, a standard two-step activation protocol was used: holding at −70 mV, a 100 ms step at −50 mV used as current reference for measurements, a 2 s depolarizing step at +40 mV, followed by a 2 s step at −50 mV to elicit the peak hERG current by rapid recovery from inactivation, repeated sweeps at 10 s intervals, plus specific protocols to assess the voltage dependence of activation and inactivation, as described in Thomet et al., 2021 [11]. • - For hKv7.1 + minK, a general two-step activation protocol was used: holding at −110 mV, a 250 ms step at −80 mV with a brief (50 ms) step at −90 mV at the middle to monitor seal quality, a 3000 ms depolarizing step at +60 mV, followed by a 1000 ms step at −50 mV; repeated sweeps at 20 s intervals. • - For hCav1.2, a pharmacology protocol with holding at −80 mV, a first 100 ms step at −50 mV and a second 200 ms step at 0 mV, repeated sweeps at 20 s intervals with drug application after 5 sweeps if current levels were steady, plus an activation–inactivation protocol with holding at −80 mV, 1000 ms depolarizing steps from −80 to +50 mV in 10 mV increments, followed by 250 ms steps at +10 mV and a return to −80 mV; 14 sweeps at 20 s intervals. • - For hNav1.5, multiple voltage protocols were used, including the following: • - A standard pharmacology protocol with holding at −90 mV, a 20 ms step at −110 mV for seal monitoring, a 40 ms activation step at −10 mV, and repeated sweeps at 1 s intervals. […]
(In patch-clamp work, channel activity is measured electrically.)

The subject of the next data set is hNav1.7. Further details: method as in ref [5] p. 8. The conditions noted are these: hNav1.7 in HEK293 cells, ref [5] p. 8, cited from earlier work.
The conditions of data set [1]: cited from earlier work.

Regarding `NC(=O)O[C@@H](Cn1ncnn1)c1ccccc1Cl` [cenobamate], the inhibition at 1 µM at hNav1.5 (HEK-293T, cenobamate 1 µM, end of step at 0 mV, read-out: % INa inhibition (late), mean (Table S3)) stood at 5.58%. Also, the inhibition at 10 µM was found to be 25.4% at hNav1.5 (HEK-293T, cenobamate 10 µM, read-out: % INa inhibition (late), mean (Table S3)) and 25.1% on hNav1.5 (HEK-293T, cenobamate 10 µM, read-out: % INa inhibition (late), single experiments (Table S3)). In addition, the inhibition at 40 µM was found to be 49.3% at hNav1.5 (HEK-293T, cenobamate 40 µM, read-out: % INa inhibition (late), mean (Table S3)) and 47.7% on hNav1.5 (HEK-293T, cenobamate 40 µM, read-out: % INa inhibition (late), single experiments (Table S3)). For the same compound, the inhibition at 100 µM was determined as 79.5% on hNav1.5 (HEK-293T, cenobamate 100 µM, read-out: % INa inhibition (late), mean (Table S3)) and 80.1% on hNav1.5 (HEK-293T, cenobamate 100 µM, read-out: % INa inhibition (late), single experiments (Table S3)). For the same compound, the inhibition at 200 µM came to 94.4% at hNav1.5 (HEK-293T, cenobamate 200 µM, read-out: % INa inhibition (late), mean (Table S3)) and 96.7% at hNav1.5 (HEK-293T, cenobamate 200 µM, read-out: % INa inhibition (late), single experiments (Table S3)). Further, the IC50 is 46.5 µM at hNav1.5 (INaLIC50 (model script), value entered in C++ script); 46.5 µM on hNav1.5 (apparent IC50 for late INa inhibition, ATX-II 20 nM or 100 nM, nH = 1); 41.8 µM in the data set on hNav1.7 (read-out: IC50 on late (persistent) INa); > 500 µM in the data set on hNav1.7 (read-out: estimated IC50 on peak (transient) Na+ current). Besides, the “% INa inhibition (late), single experiments (Table S3)” value at hNav1.5 (cenobamate 1 µM) is 9.80% and 4.35% and 2.59%; at hNav1.5 (cenobamate 10 µM), 27.99% and 16.75% and 31.85%; at hNav1.5 (cenobamate 40 µM) it was 42.71% and 49.53% and 57.45%; at hNav1.5 (cenobamate 100 µM) it was 91.98% and 72.79% and 79.43% and 73.06%; on hNav1.5 (cenobamate 200 µM), 94.40% and 94.64% and 86.94% and 99.56%. Also, the protein binding in data set [1] (human, ref [5] p.10) is on record as 61.0%. Besides, in data set [1] (study YKP3089C018, ref [5] p. 13), the “average binding to plasma proteins” value was ~ 60% and 60%.
